Assay results published in patent publication US5296487A, “Quinazoline derivatives and their preparation” (priority 1990, dated 1994).
≈ marks a conversion by molar mass, not a printed value. Structures can show the parent of a compound that is named as a salt.

Legend:
α1-adrenoceptor = α1-adrenoceptor binding assay; conditions: 3H-Prazosin binding, rat whole brain membranes
Protocol: Test 5 [α1-adrenoceptor binding assay]
Male Wistar rats (200-250 g) were killed by decapitation and the brain was placed in ice-cold buffer (0.25 M sucrose, 5 mM Tris/HCl, 1 mM MgCl2, pH 7.5).
Whole brain was homogenized in 10-20 volume (w/v) of ice-cold buffer for 20 strokes using a motor-drived Teflon-glass homogenizer. The homogenate was centrifuged at 1,000 g for 10 min at 4° C., and the pellet was discarded. The supernatant was centrifuged at 30,000 g for 20 min at 4° C. The pellet obtained was washed by
resuspension in 20 ml ice-cold 50 mM Tris/HCl, 10 mM MgCl2 buffer (pH 7.5) and recentrifuged at 30,000 g for 20 min at 4° C. The final pellet was resuspended in 15 volumes of original wet weight of 50 mM Tris/HCl, 10 mM MgCl2 buffer (pH 7.5) for use in the assays.
For ^3 H-Prazosin binding to rat brain, membrane suspensions prepared from rat whole brain (0.3-0.4 mg protein) were incubated by constant shaking for 20 min at 30° C. with ^3 H-Prazosin ([…]) and increasing concentrations of test compounds (10^-6 -10^-9 M) in a total volume of 550 μl of 50 mM Tris/HCl, 10 mM MgCl2 buffer containing 0.1 mg/ml bovine serum albumin (pH 7.5). […] These filter disks were counted by liquid scintillation counter with an efficacy of 40%. […] The concentration of the test compound inhibiting 50% of the specific binding of ^3 H-Prazosin was calculated by log profit analysis of the binding data.

[1] = system: reserpine-induced DOPA accumulation; experiment: Inhibition of reserpine-induced DOPA accumulation; assay type: in vivo, Male SD rats; conditions: dose 3.2 mg/kg, orally, 2 hours before sacrifice; striatum
Protocol: Test 2 [Inhibition of reserpine-induced DOPA accumulation]
Male SD rats weighing 300-400 g were used in this test. Rats were pretreated with reserpine (1 mg/kg, S.C.) 17-19 hours before sacrifice and then fasted. Test Compound was given orally to the rats 2 hours before sacrifice. [m-Hydroxybenzylhydrazine (100 mg/kg, i.p.) was given 30 minutes before sacrifice.] Each rat was exposed to microwaves using a head-focus microwave applicator for 1.5 seconds. The whole brain was removed and further separated into the striatum.
DOPA was determined as follows; the striatum was homogenized in 9 volumes of 0.1N perchloric acid solution (0.4% EDTA·2Na). The homogenate was centrifuged at 10,000 rpm for 1 minutes. The supernatant was applied to high performance liquid chromatography.

DA2 receptor = target: T1, DA2 receptor (Rattus norvegicus, UniProt P61169); experiment: Dopamine receptor (DA2 receptor) binding assay
T1 construct: the striatum were dissected from their brains; from tissue; host or cells: rat striatum (male rats, 150-300 g), washed homogenate pellet
T1 sequence (P61169 whole entry): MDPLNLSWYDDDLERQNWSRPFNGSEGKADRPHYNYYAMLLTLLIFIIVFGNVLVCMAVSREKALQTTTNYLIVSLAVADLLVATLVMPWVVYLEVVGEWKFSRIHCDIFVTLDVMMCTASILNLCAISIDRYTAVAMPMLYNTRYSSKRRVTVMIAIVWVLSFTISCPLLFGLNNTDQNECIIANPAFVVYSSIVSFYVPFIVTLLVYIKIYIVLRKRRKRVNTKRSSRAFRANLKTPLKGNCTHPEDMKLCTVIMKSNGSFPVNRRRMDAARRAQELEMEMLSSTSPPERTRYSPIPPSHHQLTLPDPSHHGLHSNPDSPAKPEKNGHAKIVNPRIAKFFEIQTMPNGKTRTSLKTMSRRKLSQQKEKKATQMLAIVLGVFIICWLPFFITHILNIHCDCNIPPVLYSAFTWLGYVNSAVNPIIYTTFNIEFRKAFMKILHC
Protocol: Test 1 Dopamine receptor (DA2 receptor) binding assay
The affinity for DA2 receptor of a Test Compound was determined following in vitro receptor binding assays.
Male rats weighing 150-300g were decapitated and the striatum were dissected from their brains. The tissue was homogenized in 30 volumes of buffer which consisted of 50 mM Tris-HCl (pH 7.4 at 25° C.), 120 mM sodium chloride, 5 mM potassium chloride, 1 mM calcium chloride, 1 mM magnesium chloride, 10 μM pargirine, and 0.1% ascorbic acid. The homogenate was centrifuged at 50,000 g for 15 minutes. The pellet was resuspended in 30 volumes of the buffer. The tissue suspension was centrifuged and suspended again in the same way.
Incubation tubes received 100 μl of [phenyl-4-^3 H]spiperone, 100 μl of the Test Compound and 0.8 ml of tissue suspension during binding assays. The concentration of [phenyl-4-^3 H]spiperone was 0.2 nM. The final tissue concentration of rat striatum was 160 μg/ml. […] The filters were counted by liquid scintillation counter.
Specific binding of the [^3 H]spiperone was determined in the presence of 1 μM butaclamol. The IC50 value of the Test Compound was calculated from the data of [^3 H]spiperone binding in the present of 10^-9 M, 10^-8 M, 10^-7 M and 10^-6 M Test Compound.

[2] = Hypotensive effect on spontaneous hypertensive rats; assay type: in vivo, male spontaneous hypertensive rats; conditions: dose 0.32 mg/kg, orally
Protocol: Test 3 [Hypotensive effect on spontaneous hypertensive rats] 15 to 25-Week-old male spontaneous hypertensive rats with mean arterial blood pressure of about 160-200 mmHg, weighing 300-350 g, were used. The animals were cannulated in the left femoral artery and the mean blood pressure and heart rate were measured with a pressure-transducer. The animals were deprived of food for about 18 hours before oral dosing. The Test Compound was suspended in 0.5% methylcellulose, and given orally.

[3] = Stability (storage at accelerated conditions); assay type: physicochemical; conditions: for Residual Amount (%): 12960 min
Protocol: Test Compounds were stored for 9 days at accelerated conditions as shown in the following table, and the residual amounts of them were determined by a High Performance Liquid Chromatography (HPLC).

[4] = Solubility of the test compounds in various solvents; assay type: physicochemical; conditions: for Solubility: ambient temperature
Protocol: The solubility of the test compounds in various solvents was measured at ambient temperature.

[5] = Effect on Renal Blood Flow; assay type: in vivo, Male beagle dogs; conditions: 10 μg/kg i.v., anesthetized dogs
Protocol: Test 6 Effect on Renal Blood Flow
Male beagle dogs, weighing 7-12 kg were anesthetized with sodium pentobarbital (30 mg/kg i.v.). The left renal artery was exposed retroperitoneally through a flank incision, and an electromagnetic flowmeter probe were placed around the left renal artery to measure renal blood flow.

[6] = Effect on Plasma Triglyceride Level; assay type: in vivo, Male SD rats; conditions: dose 10 mg/kg/day, orally once a day for two weeks; STZ-induced diabetic rats
Protocol: Test 7 [Effect on Plasma Triglyceride Level]
Male SD rats weighing 180-230 g were made diabetic by intravenous administration of streptozotocin (STZ) at a dose of 60 mg/kg dissolved in 2 mM citrate buffer (pH 4.5). One week later, the rats were grouped by plasma triglyceride level and test compound were administered orally once a day for two weeks. Then blood samples were collected from orbital vein, and plasma triglyceride levels were measured enzymatically (Triglyceride G-Test WAKO). Control group received 0.5% methyl cellulose.

[7] = 70° C./75% Relative Humidity, 9 days, HPLC

For `O=c1[nH]c2cc(NO)ccc2c(=O)n1CCCCN1CC=C(c2ccccc2)CC1` [Compound A, 7-hydroxyamino-3-[4-(4-phenyl-1,2,3,6-tetrahydropyridin-1-yl)butyl]-1,2,3,4-tetrahydroquinazoline-2,4-dione], the IC50 (α1-adrenoceptor) was 20 nM, the “Inhibition (%)” value [1] was 33% and the IC50 (DA2 receptor) was 8.1 nM. For the same molecule, the “Maximum decrease of blood pressure (%)” value [2] was 34%.

Molecule `CS(=O)(=O)Nc1ccc2[nH]c(=O)n(CCCCN3CC=C(c4ccccc4)CC3)c(=O)c2c1` [Compound B, 3-[4-(4-phenyl-1,2,3,6-tetrahydropyridin-1-yl)butyl]-6-methylsulfonylamino-1,2,3,4-tetrahydroquinazoline-2,4-dione] has an IC50 (α1-adrenoceptor) of 38 nM.

In the case of `CCS(=O)(=O)Nc1ccc2[nH]c(=O)n(CCCCN3CC=C(c4ccccc4)CC3)c(=O)c2c1` [Compound D, 6-ethylsulfonylamino-3-[4-(4-phenyl-1,2,3,6=tetrahydropyridin-1-yl)butyl]-1,2,3,4=tetrahydroquinazoline-2,4-dione sulfate], the “stability (in words)” value [3] is reported as “better solubility and stability”, the “Residual Amount (%)” value ([3]; 70° C., 9 days, HPLC) is reported as 98.2% and the “Residual Amount (%)” value [3, 7] is reported as 99.7%. The Solubility ([4]; isotonic saline) was 183 µg/mL, the “solubility (in words)” value ([4]; versus the product of Example 32) was “better solubility” and the Solubility ([4]; water) was 733 µg/mL.

With `CCS(=O)(=O)Nc1ccc2[nH]c(=O)n(CCCCN3CC=C(c4ccccc4)CC3)c(=O)c2c1` [Compound C, 6-Ethylsulfonylamino-3-[4-(4-phenyl-1,2,3,6-tetrahydropyridin-1-yl)butyl]-1,2,3,4-tetrahydroquinazoline-2,4-dione] the “RBF (% change)” value [5] was “+29 % change”, the plasma triglyceride [6] was 138.2 ± 47.0 mg/dL and the remaining at 216 h ([3]; 70° C., 9 days, HPLC, read-out: Residual Amount (%)) was 83.4%. For the same molecule, the “Residual Amount (%)” value [3, 7] was 69.6%, the Solubility ([4]; isotonic saline) was 9.41 µg/mL (≈ 19.5 µM) and the Solubility ([4]; water) was 7.4 µg/mL (≈ 15.3 µM).
